In publication PMC10877733, “Discovery and Characterization of VU0542270, the First Selective Inhibitor of Vascular Kir6.1/SUR2B KATP Channels” (Molecular Pharmacology, 2024) one finds IC50 data, which are given here for one compound.

Holding throughout (assay type): cell-based
Test [1] deals with T1, Kir6.1/SUR2B (Homo sapiens, UniProt O60706).
T1 construct: expressed in transfected cells; also transiently transfected HEK293T
The test is described as follows: Thallium flux assay of Kir6.1/SUR2B in HEK293 cells. From the text: The pcDNA3.1-SUR2B plasmid was generously provided by Dr. Colin Nichols (Washington University). […] Stably transfected tetracycline-regulated expression human embryonic kidney-293 (T-Rex-HEK293) cells expressing both plasmids were generated by cotransfecting cells with Lipofectamine LTX followed by antibiotic selection and clonal selection using the thallium flux assay described below. […] The cell culture media contained Dulbecco's modified Eagle's medium (Gibco, 11965-092) supplied with heat-inactivated FBS (bio-techne, Minneapolis, MN […],10%), Blasticidine HCl (Gibco, A11139-03, 10 ug/mL), Penicillin-Streptomycin (Gibco, 15140-122, 2 mM), G418 Sulfate (CORNING, Corning, NY, 30-234-CR, 1 mg/mL), and Hygromycin B (Invitrogen, Carlsbad, CA, 10687-010, 250 ug/mL). For selectivity assays, HEK293T cells were cotransfected with Kir6.x and SURX with Lipofectamine LTX and incubated for 48 hours before thallium flux assays. […] [[…] et al., 2019]). […] Dye-loaded cells were washed with assay buffer and transferred to a Panoptic Kinetic Imaging Plate Reader (Wavefront Bioscience, Franklin, TN). Control and test compound treatments were for 4 minutes prior to adding 0.5 mM chloride-free thallium stimulus buffer (Ion Bioscience) to initiate thallium flux. […] Selectivity assays against other Kir channels were performed essentially as described previously ([[…] et al., 2018]; [[…] al., 2022]). […] Data were acquired using Panoptic Software, Waveguide (Wavefront Biosciences). Raw fluorescence values were imported for analysis into custom software (VICB, Vanderbilt University). Fluorescence versus time values for each well were normalized to the initial fluorescence value [F/F0]. […] CRC data were plotted in GraphPad Prism (GraphPad Software, San Diego, CA) and fitted with a four-parameter logistic model to determine IC50 values for rank-ordering hit potency.

For test [2], the target named is T2, Kir4.1 (Homo sapiens, UniProt P78508).
T2 construct: expressed in transfected cells
T2 sequence (P78508 1-379): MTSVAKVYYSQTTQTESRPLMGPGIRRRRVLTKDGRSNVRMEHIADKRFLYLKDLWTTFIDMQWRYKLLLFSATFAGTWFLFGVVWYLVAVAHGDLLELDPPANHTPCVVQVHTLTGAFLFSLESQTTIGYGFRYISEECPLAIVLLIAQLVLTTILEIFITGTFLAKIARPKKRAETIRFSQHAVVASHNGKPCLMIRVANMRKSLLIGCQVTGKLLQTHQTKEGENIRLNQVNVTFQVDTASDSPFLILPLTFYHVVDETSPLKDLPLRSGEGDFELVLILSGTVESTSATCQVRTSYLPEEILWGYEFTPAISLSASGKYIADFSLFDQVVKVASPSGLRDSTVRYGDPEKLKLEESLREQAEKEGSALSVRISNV
The test is described as follows: Thallium flux selectivity assay Kir4.1. On the procedure:
(§1) Quantitative thallium flux assays of Kir6.1/SUR2B activity were performed essentially as described previously for Kir6.2/SUR1 ([Raphemot et al., 2014]; [Kharade et al., 2019]). Stable T-Rex-HEK293-Kir6.1/SUR2B cells or transiently transfected HEK293T cells were plated in polyamine-coated, clear-bottomed, black-walled 384-well plates and were cultured (37°C/5% CO2) overnight in Dulbecco’s modified Eagle’s medium (Gibco, Carlsbad, CA, 11995-065) containing 10% FBS (2 mM Penicillin-Streptomycin). The following day, cells were washed with assay buffer (i.e., Hanks’ balanced salt solution/20 mM HEPES) and loaded for 1 hour with thallium sensor dye Brilliant Thallium (Ion Bioscience, San Marcos, TX) at room temperature. Dye-loaded cells were washed with assay buffer and transferred to a Panoptic Kinetic Imaging Plate Reader (Wavefront Bioscience, Franklin, TN). Control and test compound treatments were for 4 minutes prior to adding 0.5 mM chloride-free thallium stimulus buffer (Ion Bioscience) to initiate thallium flux. […] Selectivity assays against other Kir channels were performed essentially as described previously ([Kharade et al., 2018]; [McClenahan et al., 2022]).

Test [3] has as its target T3, Kir2.2 (Homo sapiens, UniProt Q14500).
T3 construct: expressed in transfected cells
T3 sequence (Q14500 1-433): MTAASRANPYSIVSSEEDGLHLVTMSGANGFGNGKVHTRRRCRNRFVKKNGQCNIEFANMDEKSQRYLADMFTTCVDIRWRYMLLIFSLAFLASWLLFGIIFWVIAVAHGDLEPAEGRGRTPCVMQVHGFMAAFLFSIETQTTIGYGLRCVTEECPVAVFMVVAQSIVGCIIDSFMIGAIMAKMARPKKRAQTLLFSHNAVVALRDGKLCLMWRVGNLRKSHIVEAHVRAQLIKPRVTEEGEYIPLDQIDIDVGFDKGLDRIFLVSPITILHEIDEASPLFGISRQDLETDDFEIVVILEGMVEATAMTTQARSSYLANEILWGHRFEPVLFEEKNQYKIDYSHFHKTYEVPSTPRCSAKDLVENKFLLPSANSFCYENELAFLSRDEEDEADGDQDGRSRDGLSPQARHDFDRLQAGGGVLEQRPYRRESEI
Description: Thallium flux selectivity assay Kir2.2. The procedure: as §1

Test [4] has as its target T4, Kir4.1/Kir5.1 (Homo sapiens, UniProt P78508+Q9NPI9).
T4 construct: expressed in transfected cells
T4 sequence (P78508 1-379): T2 sequence (P78508 1-379)
T4 sequence (Q9NPI9 1-418): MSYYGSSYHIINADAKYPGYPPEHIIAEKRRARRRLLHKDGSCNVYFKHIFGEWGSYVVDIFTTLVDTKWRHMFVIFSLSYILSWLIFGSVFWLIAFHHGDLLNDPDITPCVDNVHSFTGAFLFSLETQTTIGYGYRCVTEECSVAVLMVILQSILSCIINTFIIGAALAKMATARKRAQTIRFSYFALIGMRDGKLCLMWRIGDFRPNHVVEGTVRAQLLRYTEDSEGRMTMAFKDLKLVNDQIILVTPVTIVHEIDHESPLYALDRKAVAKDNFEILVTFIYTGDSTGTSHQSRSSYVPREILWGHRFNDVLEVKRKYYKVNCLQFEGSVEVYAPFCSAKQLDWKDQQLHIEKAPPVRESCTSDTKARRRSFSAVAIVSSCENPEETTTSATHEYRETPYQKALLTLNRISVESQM
Description: Thallium flux selectivity assay Kir4.1/Kir5.1. The procedure:
as §1

The structures appear in SMILES notation. Read-outs that look alike come from different tables or passages of the source.

T1 sequence (O60706 1-1549 isoform O60706-2, species assumed): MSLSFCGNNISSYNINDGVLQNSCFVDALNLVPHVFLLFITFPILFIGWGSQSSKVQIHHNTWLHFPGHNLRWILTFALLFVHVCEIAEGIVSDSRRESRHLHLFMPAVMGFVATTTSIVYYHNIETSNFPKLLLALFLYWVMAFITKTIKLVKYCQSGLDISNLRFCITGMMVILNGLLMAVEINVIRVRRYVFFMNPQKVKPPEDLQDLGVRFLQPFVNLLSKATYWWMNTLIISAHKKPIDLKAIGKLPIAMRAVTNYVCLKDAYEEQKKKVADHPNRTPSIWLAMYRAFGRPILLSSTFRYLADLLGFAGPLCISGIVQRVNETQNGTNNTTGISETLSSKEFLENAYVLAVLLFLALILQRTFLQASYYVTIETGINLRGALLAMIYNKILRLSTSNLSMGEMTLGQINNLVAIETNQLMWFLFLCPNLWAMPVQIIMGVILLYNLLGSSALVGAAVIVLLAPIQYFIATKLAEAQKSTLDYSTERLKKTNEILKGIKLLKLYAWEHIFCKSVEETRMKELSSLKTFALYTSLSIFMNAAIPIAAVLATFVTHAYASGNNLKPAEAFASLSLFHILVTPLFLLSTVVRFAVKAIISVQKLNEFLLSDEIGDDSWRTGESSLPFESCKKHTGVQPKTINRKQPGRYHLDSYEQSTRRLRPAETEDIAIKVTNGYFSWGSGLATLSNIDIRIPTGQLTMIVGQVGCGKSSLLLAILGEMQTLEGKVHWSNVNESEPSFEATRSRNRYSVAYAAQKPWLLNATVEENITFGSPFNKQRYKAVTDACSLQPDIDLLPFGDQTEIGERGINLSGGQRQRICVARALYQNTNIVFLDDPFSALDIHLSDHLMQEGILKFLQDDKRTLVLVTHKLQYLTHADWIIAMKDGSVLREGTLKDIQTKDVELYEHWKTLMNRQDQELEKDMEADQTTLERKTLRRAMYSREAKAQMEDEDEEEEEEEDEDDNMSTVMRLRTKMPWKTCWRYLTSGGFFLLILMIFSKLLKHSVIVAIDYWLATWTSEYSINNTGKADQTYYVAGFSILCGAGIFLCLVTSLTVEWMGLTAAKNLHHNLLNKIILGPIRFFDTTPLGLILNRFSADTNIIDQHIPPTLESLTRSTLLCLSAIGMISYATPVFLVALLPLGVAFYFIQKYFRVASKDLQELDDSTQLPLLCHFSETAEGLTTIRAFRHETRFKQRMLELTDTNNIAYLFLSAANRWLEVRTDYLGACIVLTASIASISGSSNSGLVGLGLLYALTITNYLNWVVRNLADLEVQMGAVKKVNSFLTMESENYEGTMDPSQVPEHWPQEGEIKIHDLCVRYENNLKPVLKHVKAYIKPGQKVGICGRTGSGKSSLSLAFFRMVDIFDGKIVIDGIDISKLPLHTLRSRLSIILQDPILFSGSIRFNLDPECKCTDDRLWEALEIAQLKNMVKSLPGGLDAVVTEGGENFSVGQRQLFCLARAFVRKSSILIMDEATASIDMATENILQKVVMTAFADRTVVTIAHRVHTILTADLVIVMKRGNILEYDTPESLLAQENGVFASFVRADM
T1 sequence (Q15842 whole entry partner, species assumed): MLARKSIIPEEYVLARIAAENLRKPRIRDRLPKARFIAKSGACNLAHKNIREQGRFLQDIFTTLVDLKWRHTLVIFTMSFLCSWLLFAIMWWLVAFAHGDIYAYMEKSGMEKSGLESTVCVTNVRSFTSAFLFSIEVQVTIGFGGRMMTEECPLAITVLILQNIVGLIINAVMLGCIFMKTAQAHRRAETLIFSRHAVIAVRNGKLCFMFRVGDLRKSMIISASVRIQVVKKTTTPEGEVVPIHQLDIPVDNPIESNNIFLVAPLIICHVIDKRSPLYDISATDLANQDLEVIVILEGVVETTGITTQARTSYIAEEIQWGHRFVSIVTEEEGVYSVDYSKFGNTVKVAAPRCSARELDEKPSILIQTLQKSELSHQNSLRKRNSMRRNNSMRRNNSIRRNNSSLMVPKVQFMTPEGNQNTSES

As to `Cc1nc(-c2cccs2)sc1CNC(=O)Nc1cccs1` [VU0542270], the IC50 in test [1] (Table 1 selectivity profile, read-out: IC50 Kir6.1/SUR2B) was 110 nM; in test [1] (pinacidil-activated, read-out: Kir6.1/SUR2B IC50), 104 nM; in test [1] (transfected HEK-293 cells, pinacidil activation, read-out: Kir6.1/SUR2B IC50 (Fig. 4C)), 129 nM; in test [2], over 30000 nM; in test [3], over 30000 nM; in test [4], over 30000 nM.
